Laboratory results published in patent US20170181999A1, “USE OF COMPOUNDS PRODUCED FROM ARRABIDAEA BRACHYPODA EXTRACTS AS ANTI-ULCEROGENIC AGENTS” (UNIVERSIDADE ESTADUAL PAULISTA "JULIO DE MESQUITA FILHO" - …, priority 2013, published 2017).
Marks after values point to notes of the source that are not given here.

Key:
[1] = tested on: gastric acid secretion; experiment: Pylorus ligature and evaluation of the gastric juice parameters; type: in vivo, rats; settings: intra-duodenal administration; pylorus ligature, 4 hours
Procedure: The rats were in fasting for 48 hours with water ad libitum. On the day of the trial, the animals were divided into four groups: saline, lansoprazole, cimetidine and treated with A. brachypoda extract.
The rats were anesthetized and underwent a longitudinal incision just below the xiphoid apophysis for the pylorus ligature.
The drug administration was carried out immediately after the ligature, intraduodenally. The incisions were sutured, and after four hours of surgery, the rats were sacrificed. The stomachs were carefully withdrawn and acid secretion was collected. After centrifugation, the volume and pH of the secretion of each animal was measured.

[2] = tested on: GSH; experiment: Glutathione (GSH) levels on the gastric mucous, ulcer induced by ethanol; type: in vivo; settings: oral administration, gastric mucous of rats
Procedure: To proceed with the measurement of the total glutathione content, the method disclosed by Anderson in 1985 was used, which bases on the total oxidation of the reduced glutathione (GSH) present in a sample to its oxidized form (GSSG), through the incubation of the sample with dithiobis nitrobenzoic acid (DTNB). The reduced DTNB acquires a yellow coloration, which can be spectrophotometrically determined. The GSSG generated is reduced by the action of the enzyme glutathione reductase in the presence of NADPH. The GSH formed oxidizes again, generating a continuous cycle, in which the reduction speed of the DTNB (and its resulting increase in the absorbance at 412 nm) is proportional to the total amount of glutathione (GSH+GSSG). To proceed with the measurement of the total glutathione content, the cytosolic extracts obtained from the stomachs of the animals of the ulcer induced by ethanol trials were used. […] The plate was placed on the spectrophotometer reader, where it was maintained for 5 minutes in a temperature of 30° C. After this period, 15 μL of glutathione reductase was added and the increase on the absorbance was registered at 412 nm. […]

[3] = tested on: myeloperoxidase (MPO); experiment: MPO activity, ulcer induced by ethanol; type: in vivo; settings: rats
Procedure: The myeloperoxidase activity was determined through the method disclosed by Krawisz et al. in 1984. The samples were homogenized in hexadecyl trimethyl ammonium bromide (HTAB) buffer at 0.5% (w/v) in saline phosphate buffer (50 mM, pH 6.0) with final dilution of 1:20 (w/v) until the obtainment of an uniform aspect. […]
The sample was centrifuged at 7000 G, during 10 minutes and the MPO activity was determined following the kinetics of the reaction faced to hydrogen peroxide. […]
(§4) The absorbance was determined at 450 nm and the enzyme activity was calculated by the interpolation of the standard curve, performed with MPO originated from human neutrophils.
(§5) One unity of MPO is defined as the necessary amount to degrade 1 mmol/minute of hydrogen peroxide at 25° C. The results were expressed as U/g of protein.

[4] = Sub-chronic toxicity evaluation (organ and body weight), acetic acid ulcer model; type: in vivo, rats; settings: oral
Procedure: (§1) After 48 hours of the surgical procedure, the oral administration of the treatments was initiated (once daily for 7 and 14 days) with EAB (300 mg/kg), lansoprazole (30 mg/kg—positive control) and vehicle (saline solution 0.9%—negative control).
(§2) The animals were weighted and observed from the induction of the injury to the end of treatments. At the end of this period, the animals were sacrificed; their stomachs were removed and opened toward the great curvature to the measurement of the ulcerative injury area.
(§3) Tissue sections were also collected for preparing histological blades. The animals also had heart, lungs, liver, kidneys and testicles collected and weighted in order to verify possible signs of toxicity.

[5] = tested on: glutathione reductase (GR); experiment: Glutathione reductase (GR) activity on the gastric mucous, ulcer induced by ethanol; type: in vivo; settings: oral administration, gastric mucous of rats
Procedure: For measuring the GR activity, the enzymatic reaction was prepared with 100 μL of the sample (after centrifugation and dilution of the supernatant in phosphate buffer pH=7.4 in a 1:10 ratio) and 150 μL of the mixture formed by EDTA (0.20 mM), oxidized glutathione (1 mM) and NADPH (0.1 mM). The absorbance was read at 365 nm, between 0 and 10 minutes, according to the technique developed by Carlberg & Mannervik, 1985.
Rats Unib-WH were submitted to fasting for 24 hours with water ad libitum. On the day of the trial, they were divided into […] groups: saline as negative control, lansoprazole as positive control and four groups with the A. brachypoda roots extracts at different concentrations (dosages of 10, 30, 100 and 300 mg·Kg-1) dissolved in saline at 10 mL·Kg-1 concentrations.
The animals received the predicted treatment for each group and one hour later, 1 mL of absolute ethanol was orally administered.
After one hour of ulcer induction, the rats were sacrificed by cervical dislocation and their stomachs were withdrawn for quantification of injuries.
The injury areas were calculated, the stomachs were homogenized, the cytosolic extracts were prepared and the membranes for conducting the biochemical assays.

[6] = tested on: ulcer induced by acetic acid; experiment: Healing of the ulcer induced by acetic acid, injury area; type: in vivo, rats
Procedure: The rats were anaesthetized with xilazine chloridrate and ketamine for performing a longitudinal incision right under the xiphoid apophysis.
The previous wall of the stomach was exposed and an area of the serous tissue was delimited with a plastic ring upon which was added 50 μL of acetic acid absolute with the aid of an automatic micropipette, the contact between the acid and the serous tissue being maintained during 60 seconds.
Following, the area was cleaned with saline solution and the animals had their abdominal cavities closed, being maintained in rest until complete recovery of the anesthesia and, then, they were placed at the vivarium.
as §1, §2

[7] = tested on: ulcer induced by acetic acid; experiment: Histological analysis of stomachs, ulcer induced by acetic acid; type: in vivo, rats; settings: treated for 14 days, compared to the saline group
Procedure: as §3
The histological cuts and blades were prepared by fixing the material in Alfac (formalin, alcohol 80% and acetic acid) for 24 hours. The pieces were, then, dehydrated and included in an appropriate medium solid.
Subsequently, the middle blocks were cut ([…] thick) on a microtome, serially. The samples were submitted to hematoxylin-eosin (HE) coloration for general observation of the structure and cellularity in light microscopy.

[8] = tested on: glutathione peroxidase (GPx); experiment: Glutathione peroxidase (GPx) activity on the gastric mucous, ulcer induced by ethanol; type: in vivo; settings: oral administration, gastric mucous of rats
Procedure: Rats Unib-WH were submitted to fasting for 24 hours with water ad libitum. On the day of the trial, they were divided into 7 groups: saline as negative control, lansoprazole as positive control and four groups with the A. brachypoda roots extracts at different concentrations (dosages of 10, 30, 100 and 300 mg·Kg-1) dissolved in saline at 10 mL·Kg-1 concentrations.

[9] = tested on: myeloperoxidase (MPO); experiment: MPO activity of the gastric mucous, ulcer induced by acetic acid; type: in vivo, rats; settings: oral, extract 300 mg/kg, lansoprazole 30 mg/kg
Procedure: The myeloperoxidase activity was determined through the method disclosed by Krawisz et al. in 1984. The samples were homogenized in hexadecyl trimethyl ammonium bromide (HTAB) buffer at 0.5% (w/v) in saline phosphate buffer (50 mM, pH 6.0) with final dilution of 1:20 (w/v) until the obtainment of an uniform aspect.
The homogenate was submitted to the ultrasonic bath for 10 seconds, followed by a triple process for freezing and defrosting, which facilitates the rupture of the cell structures and, as a consequence, the release of the enzyme.
The sample was centrifuged at 7000 G, during 10 minutes and the MPO activity was determined following the kinetics of the reaction faced to hydrogen peroxide.
In an ELISA plate, 50 μL of the supernatant and 150 μL of the color reactive and hydrogen peroxide (0.066%) were placed in phosphate buffer (50 mM, pH 6.0).
as §4, §5

Structure (SMILES) | Volume of gastric acid secretion (mL) [1] | pH of the gastric acid secretion [1] | GSH (nmol/mg of protein) [2] | MPO (U/mg of protein) [3] | Evolution of the corporal weight (FIG. 5) ([4]; sub-chronic treatment, 14 days) | Relation between the weight of the organs and the animals: lungs (FIG. 3) ([4]; treated for 7 days) | GR (nmol/min/mg of protein) [5] | Ulcerogenic injury area (FIG. 6) ([6]; 7 consecutive days, oral, extract 300 mg/kg, lansoprazole 30 mg/kg) | Evolution of the healing process, recovery of the gastric mucous (FIG. 8) ([6]; during 14 days of oral treatment) | Photomicrographs of stomachs (FIG. 11) [7] | GPx (nmol/min/mg of protein) [8] | MPO (U/mg of protein) ([9]; 7 consecutive days) | MPO (U/mg of protein) ([9]; 14 consecutive days)
CN/C(=N/CCSCc1nc[nH]c1C)NC#N [Cimetidine, cimetidine] | 0.31 0.03** mL | 5.39 0.11*** | – | – | – | – | – | – | – | – | – | – | –
Cc1c(OCC(F)(F)F)ccnc1C[S+]([O-])c1nc2ccccc2[nH]1 (centres unmarked) [Lansoprazole, lansoprazole] | – | 5.41 0.04*** | 13.45 ± 2.25 nmol/mg of protein | 0.6 0.04* U/mg of protein | no significative statistical difference | reduction of this relation in the lungs | 10.53 ± 0.42 nmol/min/mg of protein | reduction of the injury area | acceleration | speeded up the healing of the gastric mucous | 33.54 ± 2.12 nmol/min/mg of protein | 110.50 ± 33.43 U/mg of protein | 98.05 ± 15.99 U/mg of protein
